Key:
Assay in all cases: relative viability (nuclei count vs DMSO), 5 days (fraction); higher = more cells survive
CUDC-101 + Palbociclib = compound: C#Cc1cccc(Nc2ncnc3cc(OC)c(OCCCCCCC(=O)NO)cc23)c1 [CUDC-101] + CC(=O)c1c(C)c2cnc(Nc3ccc(N4CCNCC4)cn3)nc2n(C2CCCC2)c1=O [Palbociclib] (partner 0.5 µM)
In short: (§1)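 Lung cancer cell lines in 1536-well plates were dosed by pin tool the day after seeding, either with one drug alone or with a fixed anchor-drug dose plus five library-drug doses (not always all listed) in √10 steps. After 5 days, cells were fixed and their nuclei stained in one step (final 0.05% Triton X-100, 1% formaldehyde, 1 ug/ml Hoechst), then counted on 4× images. Relative viability is the nuclei count in treated wells divided by that in vehicle wells. Values are medians of duplicate plates.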

[1] = compound: C1=CC=C2C(=C1)N=C(S2)C(C#N)C3=NC(=NC=C3)NCCC4=CN=CC=C4 + Cc1nc(Nc2ncc(C(=O)Nc3c(C)cccc3Cl)s2)cc(N2CCN(CCO)CC2)n1 [Dasatinib] (partner 0.075 µM)
In short: as §1

[2] = compound: C1=CC=C2C(=C1)N=C(S2)C(C#N)C3=NC(=NC=C3)NCCC4=CN=CC=C4 + Nc1nc2[nH]cc(CCc3ccc(C(=O)N[C@@H](CCC(=O)O)C(=O)O)cc3)c2c(=O)[nH]1 [Pemetrexed] (partner 0.2 µM)
In short: as §1

NVP-TAE684 + Alpelisib = compound: COc1cc(N2CCC(N3CCN(C)CC3)CC2)ccc1Nc1ncc(Cl)c(Nc2ccccc2S(=O)(=O)C(C)C)n1 [NVP-TAE684] + Cc1nc(NC(=O)N2CCC[C@H]2C(N)=O)sc1-c1ccnc(C(C)(C)C(F)(F)F)c1 [Alpelisib] (partner 2 µM)
In short: as §1

Row | Cell Line | relative viability (CUDC-101 + Palbociclib; first compound 0.01 µM) | relative viability (CUDC-101 + Palbociclib; first compound 0.03162 µM) | relative viability (CUDC-101 + Palbociclib; first compound 0.1 µM) | relative viability (CUDC-101 + Palbociclib; first compound 0.3162 µM) | relative viability (CUDC-101 + Palbociclib; first compound 1 µM) | relative viability ([1]; first compound 0.005 µM) | relative viability ([1]; first compound 0.01581 µM) | relative viability ([1]; first compound 0.05 µM) | relative viability ([1]; first compound 0.1581 µM) | relative viability ([1]; first compound 0.5 µM) | relative viability ([2]; first compound 0.005 µM) | relative viability ([2]; first compound 0.01581 µM) | relative viability ([2]; first compound 0.05 µM) | relative viability ([2]; first compound 0.1581 µM) | relative viability ([2]; first compound 0.5 µM) | relative viability (NVP-TAE684 + Alpelisib; first compound 0.2 µM) | relative viability (NVP-TAE684 + Alpelisib; first compound 0.6325 µM) | relative viability (NVP-TAE684 + Alpelisib; first compound 2 µM)
1 | EMC-BAC-2 | 0.546 | 0.514 | 0.502 | 0.502 | 0.375 | 0.334 | 0.359 | 0.364 | 0.388 | 0.324 | 0.488 | 0.442 | 0.414 | 0.477 | 0.429 | 0.704 | 0.759 | 0.436
2 | NCI-H1437 | 0.287 | 0.327 | 0.302 | 0.342 | 0.302 | 0.363 | 0.303 | 0.528 | 0.562 | 0.376 | 0.329 | 0.298 | 0.321 | 0.335 | 0.311 | 1 | 1 | 0.516
3 | NCI-H1944 | 0.33 | 0.298 | 0.322 | 0.311 | 0.216 | 0.211 | 0.195 | 0.21 | 0.22 | 0.2 | 0.605 | 0.665 | 0.66 | 0.558 | 0.576 | 0.786 | 0.797 | 0.691
4 | NCI-H838 | 0.213 | 0.221 | 0.233 | 0.26 | 0.214 | 0.204 | 0.28 | 0.325 | 0.264 | 0.262 | 0.216 | 0.242 | 0.243 | 0.262 | 0.249 | 1.06 | 0.97 | 0.537
5 | HCC-827 | 0.35 | 0.283 | 0.155 | 0.169 | 0.142 | 0.331 | 0.301 | 0.336 | 0.307 | 0.284 | 0.238 | 0.239 | 0.25 | 0.264 | 0.259 | 1.05 | 1.05 | 0.822
6 | NCI-H2342 | 0.526 | 0.547 | 0.523 | 0.505 | 0.556 | 0.32 | 0.314 | 0.349 | 0.328 | 0.337 | 0.823 | 0.716 | 0.697 | 0.85 | 0.81 |  |  | 
7 | LOU-NH91 | 0.574 | 0.445 | 0.529 | 0.581 | 0.515 | 0.501 | 0.567 | 0.509 | 0.58 | 0.471 | 0.403 | 0.429 | 0.418 | 0.375 | 0.441 | 0.68 | 0.623 | 0.532
8 | NCI-H3122 | 0.206 | 0.214 | 0.187 | 0.177 | 0.175 | 0.826 | 0.824 | 0.873 | 1.03 | 0.686 | 0.187 | 0.197 | 0.206 | 0.214 | 0.194 | 0.28 | 0.197 | 0.189
9 | NCI-H1563 |  |  |  |  |  | 0.536 | 0.413 | 0.426 | 0.44 | 0.473 | 0.751 | 0.728 | 0.696 | 0.779 | 0.764 | 0.802 | 0.828 | 0.903
10 | NCI-H1734 | 0.357 | 0.374 | 0.342 | 0.382 | 0.274 |  | 0.476 | 0.479 | 0.605 | 0.401 | 0.412 | 0.405 | 0.416 | 0.434 | 0.418 | 0.768 | 0.916 | 0.468
11 | EPLC-272H | 0.318 | 0.314 | 0.279 | 0.282 | 0.261 | 0.283 | 0.304 | 0.264 | 0.374 | 0.312 |  | 0.255 | 0.317 | 0.325 | 0.326 | 0.799 |  | 0.9
12 | RERF-LC-KJ | 1.15 | 1.16 | 1.01 | 0.844 | 0.813 | 0.796 | 0.863 | 0.756 | 0.952 | 0.527 | 0.468 | 0.505 | 0.465 | 0.507 | 0.502 | 0.789 | 0.743 | 0.843
13 | EBC-1 |  |  |  |  |  |  |  |  |  |  |  |  |  |  |  | 0.772 | 0.824 | 0.559
14 | HARA | 0.278 | 0.204 | 0.246 | 0.224 | 0.172 | 0.355 | 0.281 | 0.246 | 0.235 | 0.372 | 0.271 | 0.205 | 0.259 | 0.283 | 0.305 | 0.884 | 0.719 | 0.346
15 | NCI-H1651 | 0.548 | 0.543 | 0.497 | 0.529 | 0.493 | 0.307 | 0.35 | 0.587 | 0.393 | 0.3 | 0.41 | 0.527 | 0.597 | 0.708 | 0.381 |  | 1.02 | 0.994
16 | NCI-H2405 | 0.523 | 0.513 | 0.585 | 0.584 | 0.506 | 0.214 | 0.187 | 0.168 | 0.234 | 0.219 | 1.14 | 0.998 | 1.07 | 1.1 | 0.98 | 0.835 | 0.662 | 0.374
17 | NCI-H596 |  |  |  |  |  | 0.559 | 0.559 | 0.534 | 0.526 | 0.619 | 0.464 | 0.517 | 0.485 | 0.58 | 0.495 | 0.526 | 0.517 | 0.375
18 | NCI-H2009 | 0.219 | 0.191 | 0.263 | 0.258 | 0.276 | 0.257 | 0.25 | 0.261 | 0.324 | 0.267 | 0.992 | 1.05 | 0.98 | 1.09 | 1.02 | 1.11 | 1.14 | 0.927
19 | NCI-H2170 | 0.419 | 0.402 | 0.385 | 0.37 | 0.361 | 0.447 | 0.498 | 0.501 | 0.675 | 0.611 | 0.275 | 0.26 | 0.27 | 0.27 | 0.274 | 0.702 | 0.789 | 0.672

Reference: the supplement of paper PMC10307832
